Test results reported in PMC4822259 (Parasites & Vectors, 2016).

Legend:
Assay type in all cases: cell-based
[1] = target: T1, CqDOP2 (Culex quinquefasciatus, UniProt A0A0B5H0X6); test: IP-One HTRF IP1 accumulation, inhibition of dopamine response, HEK-293
T1 construct: gene DOP2; receptor expressed in HEK-293 cells, from authors' previous work
T1 sequence (A0A0B5H0X6 1-479): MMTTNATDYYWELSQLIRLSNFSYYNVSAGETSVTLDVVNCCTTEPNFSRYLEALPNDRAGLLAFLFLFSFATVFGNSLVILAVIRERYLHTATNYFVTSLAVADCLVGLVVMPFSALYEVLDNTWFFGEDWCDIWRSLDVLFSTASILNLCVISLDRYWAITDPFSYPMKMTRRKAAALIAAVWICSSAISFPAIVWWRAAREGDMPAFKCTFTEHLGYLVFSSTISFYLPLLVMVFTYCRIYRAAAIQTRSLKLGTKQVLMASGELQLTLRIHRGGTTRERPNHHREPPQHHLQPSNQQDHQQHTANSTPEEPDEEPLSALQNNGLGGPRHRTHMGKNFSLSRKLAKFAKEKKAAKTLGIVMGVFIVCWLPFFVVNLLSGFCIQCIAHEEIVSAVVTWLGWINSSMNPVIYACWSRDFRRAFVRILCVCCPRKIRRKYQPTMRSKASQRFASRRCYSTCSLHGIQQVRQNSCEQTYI

[2] = target: T2, AaDOP2 (Aedes aegypti, UniProt H6D5H2); test: as above
T2 construct: gene dop2; receptor expressed in HEK-293 cells, from authors' previous work
T2 sequence (H6D5H2 1-476): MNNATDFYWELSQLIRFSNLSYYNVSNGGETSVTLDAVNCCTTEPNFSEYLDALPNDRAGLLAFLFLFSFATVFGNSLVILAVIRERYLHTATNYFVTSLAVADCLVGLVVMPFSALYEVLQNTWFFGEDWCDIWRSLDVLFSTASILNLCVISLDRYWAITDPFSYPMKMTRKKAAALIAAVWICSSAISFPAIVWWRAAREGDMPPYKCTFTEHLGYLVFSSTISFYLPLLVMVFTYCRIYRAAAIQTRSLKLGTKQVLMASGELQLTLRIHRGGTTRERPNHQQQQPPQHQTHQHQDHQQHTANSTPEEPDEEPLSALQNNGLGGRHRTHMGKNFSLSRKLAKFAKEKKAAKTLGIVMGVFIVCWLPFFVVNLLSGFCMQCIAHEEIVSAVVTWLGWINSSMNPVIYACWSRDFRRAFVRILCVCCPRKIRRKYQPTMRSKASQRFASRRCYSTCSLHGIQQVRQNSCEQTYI

[3] = target: T3, AgDOP2 (Anopheles gambiae, UniProt A0A1W5KQ45); test: as above
T3 sequence (A0A1W5KQ45 1-495): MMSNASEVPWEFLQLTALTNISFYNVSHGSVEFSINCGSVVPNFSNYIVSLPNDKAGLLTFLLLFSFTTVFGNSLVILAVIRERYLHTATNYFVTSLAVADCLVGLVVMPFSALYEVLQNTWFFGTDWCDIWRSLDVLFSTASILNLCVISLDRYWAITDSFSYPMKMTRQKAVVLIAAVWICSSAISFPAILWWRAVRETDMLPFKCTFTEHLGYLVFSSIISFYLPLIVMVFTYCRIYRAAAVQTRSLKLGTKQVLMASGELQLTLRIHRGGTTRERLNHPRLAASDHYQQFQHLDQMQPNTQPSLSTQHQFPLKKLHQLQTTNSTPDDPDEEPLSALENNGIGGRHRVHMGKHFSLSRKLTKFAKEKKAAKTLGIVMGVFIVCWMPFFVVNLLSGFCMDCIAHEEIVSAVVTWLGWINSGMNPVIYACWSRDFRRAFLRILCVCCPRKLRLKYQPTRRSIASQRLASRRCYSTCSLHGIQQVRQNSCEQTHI

[4] = target: T3, AgDOP2; test: IP-One HTRF IP1 accumulation, agonist stimulation, HEK-293

## CN(C)CCC=C1c2ccccc2CCc2ccccc21 [Amitriptyline]
[1]
  IC50: 80 ± 7 nM
[2]
  IC50: 50 ± 3 nM
[3]
  IC50: 230 ± 20 nM

## CCNC(=O)N1CCN(CCCC(c2ccc(F)cc2)c2ccc(F)cc2)CC1 [Amperozide]
[1]
  IC50: 2600 ± 600 nM
[2]
  IC50: 5100 ± 1000 nM
[3]
  IC50: 18800 ± 11000 nM

## CN1CC2c3ccccc3Oc3ccc(Cl)cc3C2C1 (stereo not drawn) [Asenapine]
[1]
  IC50: 20 ± 4 nM
[2]
  IC50: 3 ± 0.5 nM
[3]
  IC50: 0.7 ± 0.08 nM

## CN(C)CC/C=C1/c2ccccc2Sc2ccc(Cl)cc21 [Chlorprothixene]
[1]
  IC50: 10 ± 2 nM
[3]
  IC50: 400 ± 7 nM

## CSc1ccc2c(c1)C(N1CCN(C)CC1)Cc1ccccc1S2 (stereo not drawn) [Methiothepin]
[1]
  IC50: 10 ± 5 nM
[2]
  IC50: 3 ± 1 nM
[3]
  IC50: 140 ± 8 nM

## CN1CCc2cc(Cl)c(O)cc2[C@@H](c2ccccc2)C1 [SCH23390]
[1]
  IC50: 8300 ± 1000 nM
[2]
  IC50: 4700 ± 800 nM
[3]
  IC50: 3600 ± 800 nM

## NCCc1ccc(O)c(O)c1 [dopamine]
[4]
  EC50: 4700 ± 400 nM
